What all share (experiment): NCI-60 cell line screen, 48 h
Assay [1] deals with NCI-H460 lung.
Assay [2] has as its system A498 renal.
In assay [3] the test system is U251 CNS.
Assay [4] relates to RXF 393 renal.
In assay [5] the test system is UACC-257 melanoma.
Assay [6] relates to TK-10 renal.
Assay [7] relates to HCT-116 colon.
In assay [8] the test system is HOP-62 NSCLC.
In assay [9] the test system is SF-539 CNS.
Assay [10] relates to MDA-MB-435.

Where “and” joins values, the source holds several entries; their conditions need not be identical. Equal values may be shown once.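 A five-concentration, 48-hour dose response in 96-well plates underlies each endpoint, interpolated linearly between surrounding concentrations. Here, GI50 denotes the concentration required for 50% inhibition of growth. Definition used: TGI = concentration required for complete inhibition of growth.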

On to `C=C(C)C1CC=C(C)CC1` (stereo not drawn), for which the GI50 in assay [1], in assay [3], in [4], in assay [5], in [6] and in assay [7] was > 100 µM each time. In addition, the GI50 in assay [8] and in assay [9] was > 100 µM in each case. The TGI in assay [1] is > 100 µM and 1730 µM; in assay [2], 1610 µM; in assay [3], > 100 µM and 1480 µM; in assay [4], > 100 µM and 1730 µM; in assay [5] it was > 100 µM and 1850 µM; in assay [6] it was > 100 µM and 1760 µM. Further, the TGI in assay [7] was > 100 µM and 1620 µM; in assay [8] it was > 100 µM and 1630 µM; in assay [9] it was > 100 µM and 1690 µM.
As to `Cn1cc(-c2csc(-c3cn(CCCCN4CCCCC4)c4ccc(F)cc34)n2)c2cccnc21`, the GI50 in assay [1] is 1.9 µM; in assay [2] it was 1.6 µM; in [10], 1.52 µM; in [4] it was 1.52 µM; in assay [5], 1.7 µM; in assay [6] it was 1.58 µM. For the same compound, the GI50 in [8] was 14 µM. Besides, the TGI in assay [1] stood at 3.52 µM; in assay [2] it was 3.28 µM; in assay [10], 2.84 µM; in assay [4], 3.04 µM; in [5] it was 3.25 µM; in [6] it was 2.92 µM. The same compound gave a TGI in assay [8] of 31.1 µM.
As to `COC(=O)C1=Cc2cc(OC)c(OC)cc2[C@H](c2ccc(OC)c(OC)c2)C1C(=O)OC` (stereo partly drawn), the TGI in assay [1], in assay [2], in assay [3], in assay [4], in assay [5] and in [6] was > 100 µM throughout. Also, the TGI in [7], in [8] and in assay [9] was > 100 µM in each case.
As for `CNc1cc2nc3cc(NC)c(C)cc3cc2cc1C`, the GI50 is 0.41 µM in [1]; 1.18 µM in assay [2]; 2.48 µM in assay [10]; 1.09 µM in [4]; 6.83 µM in assay [5]; 3.55 µM in [6]. Also, the GI50 was 0.365 µM in assay [7], 1.3 µM in [8] and 2.06 µM in assay [9]. The TGI in assay [1] is 1.66 µM; in assay [2], 3.9 µM; in assay [10], 18.3 µM; in assay [4] it was 2.37 µM; in assay [5], 32.3 µM; in assay [6] it was 16.2 µM. Besides, the TGI is 1.49 µM in [7], 16 µM in assay [8] and 16.2 µM in [9].
On to `O=C(N/C(=C\c1ccc(/C=C(\NC(=O)c2ccccc2)c2nc3cc(Cl)ccc3[nH]2)cc1)c1nc2cc(Cl)ccc2[nH]1)c1ccccc1`, for which the TGI was > 100 µM in [1]; > 100 µM in assay [2]; > 100 µM in assay [3]; 85.3 µM in [4]; > 100 µM in assay [5]; 79 µM in assay [6]. Moreover, the TGI in assay [7] is 66.2 µM; in assay [8] it was > 100 µM; in assay [9], 78.5 µM.
Take `COc1cc(/C=C2\Oc3cc(OCCCN4CCCC4)ccc3C2=O)cc(OC)c1`: the GI50 was 3.43 µM in assay [1]; 10.5 µM in assay [10]; 2.38 µM in assay [3]; 3.02 µM in assay [4]; 4.54 µM in [5]; 11.4 µM in [6]. The GI50 in assay [7] is 2.78 µM; in [8], 3.68 µM; in assay [9], 1.66 µM. Moreover, the TGI in assay [1] is 12.3 µM; in assay [10] it was 22.4 µM; in assay [3] it was 7.71 µM; in assay [4] it was 12.3 µM; in assay [5], 17 µM; in assay [6], 25.4 µM. The TGI in [7] came to 8.34 µM; in assay [8], 15.3 µM; in assay [9], 3.12 µM.
As for `CSc1nc2c(nc(N)n2C2OC(COC(C)=O)C(OC(C)=O)C(OC(C)=O)C2OC(C)=O)c(=O)n1C` (stereo not drawn), the TGI in assay [1], in assay [2], in [3], in assay [4], in assay [5] and in assay [6] was > 100 µM each time. Further, the TGI in [7], in assay [8] and in assay [9] was > 100 µM each time.
As for `O=C(O)C1C2C=CC(C2)C1C(=O)O` (stereo not drawn), the GI50 in assay [1], in assay [2], in assay [10], in [3], in [4] and in assay [5] was > 100 µM each time. For the same compound, the GI50 in assay [7], in assay [8] and in [9] was > 100 µM each time. Also, the TGI in [1], in [2], in [10], in assay [3], in assay [4] and in [5] was > 100 µM throughout. In addition, the TGI in assay [7], in assay [8] and in assay [9] was > 100 µM each time.
Regarding `CC(=O)[CH-]C(=O)c1ccccc1.CC(=O)[CH-]C(=O)c1ccccc1.CC[C@H](/C=C/C(C)[C@H]1CCC2[C@@H]3CC=C4C[C@@H]([O-])CC[C@]4(C)C3CC[C@@]21C)C(C)C.CC[O-].[Ti+4]` (stereo partly drawn), the GI50 in assay [1] is > 100 µM; in [2], > 100 µM; in assay [3], > 100 µM; in [4], 84.4 µM; in assay [5] it was > 100 µM; in [6], > 100 µM. Further, the GI50 in assay [7], in assay [8] and in assay [9] was > 100 µM throughout. The TGI in assay [1], in [2], in [3], in assay [4], in assay [5] and in assay [6] was > 100 µM each time. Moreover, the TGI in assay [7], in [8] and in assay [9] was > 100 µM in each case.
For the compound `N#Cc1cc([N+](=O)[O-])ccc1NC(=O)C(F)(F)F`, the TGI in assay [1] was > 57.4 µM; in assay [2], > 100 µM; in assay [3], > 100 µM; in [4] it was > 100 µM; in assay [5], > 100 µM; in assay [6] it was > 100 µM. The TGI was > 61.5 µM in assay [7], > 100 µM in assay [8] and > 100 µM in assay [9].
As to `CCOc1ccc2c(C)cc(=O)oc2c1`, the TGI in assay [1], in [2], in [10], in assay [3], in assay [4] and in assay [5] was > 100 µM in each case. Besides, the TGI in [7], in assay [8] and in [9] was > 100 µM each time.

Values taken from PubChem BioAssay (NCI).
